In paper PMC5681660, “Reduced hepatitis B and D viral entry using clinically applied drugs as novel inhibitors of the bile acid transporter NTCP” (Scientific Reports, 2017):
Where a name gives a salt, the structure may show the parent alone. Read-outs that look alike come from different tables or passages of the source.

Key:
human NTCP [1] = target: T1, human NTCP (Homo sapiens, UniProt Q14973); experiment: Screening taurocholate uptake assay (96-well, [14C]taurocholate, 10 µM drug)
T1 sequence (Q14973 1-349): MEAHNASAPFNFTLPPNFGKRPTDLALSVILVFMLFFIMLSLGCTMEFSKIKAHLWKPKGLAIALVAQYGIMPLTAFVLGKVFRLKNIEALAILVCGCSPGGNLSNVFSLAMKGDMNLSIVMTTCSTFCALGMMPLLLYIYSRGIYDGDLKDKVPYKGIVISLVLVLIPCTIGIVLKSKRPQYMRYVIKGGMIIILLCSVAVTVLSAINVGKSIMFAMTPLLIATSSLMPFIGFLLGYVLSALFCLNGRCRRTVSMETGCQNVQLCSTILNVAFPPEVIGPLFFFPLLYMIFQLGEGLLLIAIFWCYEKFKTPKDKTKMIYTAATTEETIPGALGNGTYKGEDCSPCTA

human NTCP [2] = target: T1, human NTCP; experiment: Screening fluorescent competitive Myrcludex B-FITC binding assay (96-well, 10 µM drug)
[3] = Prestwick library screen, taurocholate uptake, 10 µM drug
[4] = ranking score beside the functional and binding assay B-scores of the screen
[5] = Prestwick library screen, Myrcludex B-FITC binding, 10 µM drug
[6] = combined ranking from functional and binding screening assays
[7] = screen, 10 µM drug, taurocholate uptake
[8] = screen, 10 µM drug, Myrcludex B-FITC binding
[9] = Prestwick library screen, 10 µM drug, B-score of taurocholate uptake
[10] = combined ranking from functional and binding assay B-scores
[11] = Prestwick library screen, 10 µM drug, B-score of Myrcludex B-FITC binding

CN1CCN(CCCN2c3ccccc3Sc3ccc(C(F)(F)F)cc32)CC1 [Trifluoperazine dihydrochloride] was tested, and the B-score functional assay (human NTCP [1]; [3]) was 0.212, the Ranking score (human NTCP [1]; [4]) was 714.92 and the B-score binding assay (human NTCP [2]; [5]) was -0.002.

Work on CN(C)CCCN1c2ccccc2Sc2ccc(C(F)(F)F)cc21 [Triflupromazine hydrochloride] yielded a Ranking score (human NTCP [1]; [6]) of 447.888, a B-score functional assay (human NTCP [1]; [7]) of -0.264 and a B-score binding assay (human NTCP [2]; [8]) of -0.314.

With O=c1[nH]c(=O)n([C@H]2C[C@H](O)[C@@H](CO)O2)cc1C(F)(F)F [Trifluridine] the B-score functional assay (human NTCP [1]; [9]) was 0.173, the Ranking score (human NTCP [1]; [10]) was 994.589 and the B-score binding assay (human NTCP [2]; [11]) was 2.847.

CC(=O)Oc1cc(C(F)(F)F)ccc1C(=O)O [Triflusal] was tested, and the Ranking score (human NTCP [1]; [6]) was 440.15, the B-score functional assay (human NTCP [1]; [7]) was -0.747 and the B-score binding assay (human NTCP [2]; [8]) was -0.002.

CC(CN(C)C)CN1c2ccccc2Sc2ccccc21.CC(CN(C)C)CN1c2ccccc2Sc2ccccc21.O=C(O)C(O)C(O)C(=O)O (stereo not drawn) [Trimeprazine tartrate] showed a Ranking score (human NTCP [1]; [6]) of 352.65, a B-score functional assay (human NTCP [1]; [7]) of -0.375 and a B-score binding assay (human NTCP [2]; [8]) of -0.763.

With COc1ccc(CN2CCNCC2)c(OC)c1OC [Trimetazidine dihydrochloride] the Ranking score (human NTCP [1]; [6]) was 350.668, the B-score functional assay (human NTCP [1]; [7]) was 0.211 and the B-score binding assay (human NTCP [2]; [8]) was -1.545.

For CN1C(=O)OC(C)(C)C1=O [Trimethadione], the B-score functional assay (human NTCP [1]; [9]) was 1.466, the Ranking score (human NTCP [1]; [10]) was 860.791 and the B-score binding assay (human NTCP [2]; [11]) was 0.001.

COc1cc(C(=O)N2CCOCC2)cc(OC)c1OC [Trimetozine] showed a B-score functional assay (human NTCP [1]; [9]) of 0.651, a Ranking score (human NTCP [1]; [10]) of 925.93 and a B-score binding assay (human NTCP [2]; [11]) of 0.441.

Work on Cc1cc2cc3c(C)cc(=O)oc3c(C)c2o1 [Trioxsalen] yielded a B-score functional assay (human NTCP [1]; [9]) of 0.56, a Ranking score (human NTCP [1]; [10]) of 1035.49 and a B-score binding assay (human NTCP [2]; [11]) of 1.537.

For CO[C@H]1C[C@H](O[C@H]2[C@H](C)[C@@H](O[C@@H]3O[C@H](C)C[C@H](N(C)C)[C@H]3OC(C)=O)[C@@H](C)C[C@@]3(CO3)C(=O)[C@H](C)[C@@H](OC(C)=O)[C@@H](C)[C@@H](C)OC(=O)[C@@H]2C)O[C@@H](C)[C@@H]1OC(C)=O [Troleandomycin], the B-score functional assay (human NTCP [1]; [3]) was -0.071, the Ranking score (human NTCP [1]; [4]) was 732.508 and the B-score binding assay (human NTCP [2]; [5]) was 0.633.

In the case of COc1cc(C(=O)NC2CCCNC2)cc(OC)c1OC (stereo not drawn) [Troxipide], the B-score functional assay (human NTCP [1]; [9]) is reported as 0.286, the Ranking score (human NTCP [1]; [10]) is reported as 1019.78 and the B-score binding assay (human NTCP [2]; [11]) is reported as 2.726.

Work on CC[C@H]1OC(=O)C[C@@H](O)[C@H](C)[C@@H](O[C@@H]2O[C@H](C)[C@@H](O[C@H]3C[C@@](C)(O)[C@@H](O)[C@H](C)O3)[C@H](N(C)C)[C@H]2O)[C@@H](CC=O)C[C@@H](C)C(=O)/C=C/C(C)=C/[C@@H]1CO[C@@H]1O[C@H](C)[C@@H](O)[C@@H](OC)[C@H]1OC [Tylosin] yielded a B-score functional assay (human NTCP [1]; [9]) of 0.165, a Ranking score (human NTCP [1]; [10]) of 978.04 and a B-score binding assay (human NTCP [2]; [11]) of 2.256.

In the case of COc1ccccc1N1CCN(CCCNc2cc(=O)n(C)c(=O)n2C)CC1 [Urapidil hydrochloride], the B-score functional assay (human NTCP [1]; [9]) is reported as 0.807, the Ranking score (human NTCP [1]; [10]) is reported as 1027.42 and the B-score binding assay (human NTCP [2]; [11]) is reported as 1.015.

With Cc1onc(-c2ccccc2)c1-c1ccc(S(N)(=O)=O)cc1 [Valdecoxib] the B-score functional assay (human NTCP [1]; [3]) was -0.028, the Ranking score (human NTCP [1]; [4]) was 650.385 and the B-score binding assay (human NTCP [2]; [5]) was 0.051.

Compound CCCC(CCC)C(=O)O [Valproic acid] has a B-score functional assay (human NTCP [1]; [9]) of 0.92, a Ranking score (human NTCP [1]; [10]) of 1093.47 and a B-score binding assay (human NTCP [2]; [11]) of 1.515.

In the case of CCCCC(=O)N(Cc1ccc(-c2ccccc2-c2nnn[nH]2)cc1)[C@H](C(=O)O)C(C)C [Valsartan], the Ranking score (human NTCP [1]) is reported as 721.211, the B-score functional assay (human NTCP [1]; [3]) is reported as 0.156 and the B-score binding assay (human NTCP [2]) is reported as 0.016.

With CN[C@H](CC(C)C)C(=O)N[C@H]1C(=O)N[C@@H](CC(N)=O)C(=O)N[C@H]2C(=O)N[C@H]3C(=O)N[C@H](C(=O)N[C@H](C(=O)O)c4cc(O)cc(O)c4-c4cc3ccc4O)[C@H](O)c3ccc(c(Cl)c3)Oc3cc2cc(c3O[C@@H]2O[C@H](CO)[C@@H](O)[C@H](O)[C@H]2O[C@H]2C[C@](C)(N)[C@H](O)[C@H](C)O2)Oc2ccc(cc2Cl)[C@H]1O [Vancomycin hydrochloride] the B-score functional assay (human NTCP [1]) was -0.819, the Ranking score (human NTCP [1]) was 571.108 and the B-score binding assay (human NTCP [2]) was 1.401.

With CC(=O)O[C@H]1C[C@@H]2CC[C@@H]3[C@H](CC[C@@]4(C)[C@H]3C[C@H]([N+]3(C)CCCCC3)[C@@H]4OC(C)=O)[C@@]2(C)C[C@@H]1N1CCCCC1 [Vecuronium bromide] the B-score functional assay (human NTCP [1]; [3]) was 0.006, the Ranking score (human NTCP [1]; [4]) was 708.114 and the B-score binding assay (human NTCP [2]; [5]) was 0.155.

Nc1ncnc2c1ncn2[C@@H]1O[C@H](CO)[C@@H](O)[C@@H]1O [Vidarabine] gave a Ranking score (human NTCP [1]; [6]) of 319.086, a B-score functional assay (human NTCP [1]; [7]) of -2.606 and a B-score binding assay (human NTCP [2]; [8]) of 1.523.

Compound C=CC(N)CCC(=O)O (stereo not drawn) [Vigabatrin] has a B-score functional assay (human NTCP [1]; [3]) of -0.08, a Ranking score (human NTCP [1]; [4]) of 730.208 and a B-score binding assay (human NTCP [2]; [5]) of 0.671.

CCOc1ccccc1OCC1CNCCO1 (stereo not drawn) [Viloxazine hydrochloride] gave a B-score functional assay (human NTCP [1]) of -1.513, a Ranking score (human NTCP [1]) of 214.483 and a B-score binding assay (human NTCP [2]) of -0.914.
